Results published in patent US9580449B2, “Compositions and methods for the production of pyrimidine and pyridine compounds with BTK inhibitory activity” (Merck Patent GmbH, priority 2011, dated 2017).

Biological target: full-length human BTK (Homo sapiens (Human), UniProt Q06187)
Assay: BTK IC50 enzyme assay (microfluidic off-chip mobility shift kinase assay)
Type: biochemical
Conditions: incubated for 90 min. at 27 C; read-out: Time Dependent BTK Enzyme Assay IC50
Outline: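 Off-chip microfluidic mobility shift assay on full-length human BTK; substrate-to-product conversion measured by charge/mass separation of phosphorylated peptide after reaction stop.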

Sequence of full-length human BTK (Q06187 whole entry): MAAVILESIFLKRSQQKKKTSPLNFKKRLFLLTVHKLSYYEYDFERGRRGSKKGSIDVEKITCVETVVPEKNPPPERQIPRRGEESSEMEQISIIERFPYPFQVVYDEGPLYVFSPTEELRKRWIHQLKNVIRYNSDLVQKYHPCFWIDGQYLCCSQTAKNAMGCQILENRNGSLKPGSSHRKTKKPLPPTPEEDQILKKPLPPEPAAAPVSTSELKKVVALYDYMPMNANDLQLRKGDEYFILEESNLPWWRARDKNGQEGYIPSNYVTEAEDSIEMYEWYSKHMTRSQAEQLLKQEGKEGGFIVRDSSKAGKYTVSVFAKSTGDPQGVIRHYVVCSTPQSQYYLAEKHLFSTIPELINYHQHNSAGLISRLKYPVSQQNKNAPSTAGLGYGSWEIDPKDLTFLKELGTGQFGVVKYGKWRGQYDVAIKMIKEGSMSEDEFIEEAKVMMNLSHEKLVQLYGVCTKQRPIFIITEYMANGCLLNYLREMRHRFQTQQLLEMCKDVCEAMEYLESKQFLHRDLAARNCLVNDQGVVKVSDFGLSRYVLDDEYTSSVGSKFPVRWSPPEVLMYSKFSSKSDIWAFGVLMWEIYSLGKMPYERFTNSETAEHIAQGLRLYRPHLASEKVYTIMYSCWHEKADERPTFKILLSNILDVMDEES

| IC50 | Structure (SMILES) |
| --- | --- |
| < 100 nM | CN(C)C/C=C/C(=O)Nc1cccc(-c2cnccc2Oc2ccc(Oc3ccccc3)cc2)c1 [A282, (E)-4-(dimethylamino)-N-(3-(4-(4-phenoxyphenoxy)pyridin-3-yl)phenyl)but-2-enamide] |
| < 1000 nM | C=CC(=O)N1CC[C@@H](COc2ncnc(N)c2-c2ccc(Oc3ccc(C#N)cc3)cc2)C1 [A201, (R)-4-(4-(4-((1-acryloylpyrrolidin-3-yl)methoxy)-6-aminopyrimidin-5-yl)phenoxy)benzonitrile] |
| < 1000 nM | C=CC(=O)N1CCC(CNc2ncnc(N)c2-c2ccc(Oc3cccnc3)cc2)CC1 [A96, 1-(4-(((6-amino-5-(4-(pyridin-3-yloxy)phenyl)pyrimidin-4-yl)amino)methyl)piperidin-1-yl)prop-2-en-1-one] |
| > 1000 nM | Nc1ncnc(NCC2CCN(c3cccc(Cl)n3)CC2)c1-c1ccc(Oc2ccccc2)cc1 [A337, N4-((1-(6-chloropyridin-2-yl)piperidin-4-yl)methyl)-5-(4-phenoxyphenyl)pyrimidine-4,6-diamine] |
| < 100 nM | C=CC(=O)Nc1cncc(Oc2ncnc(N)c2-c2ccc(Oc3ccccc3)cc2)c1 [A60, N-(5-((6-amino-5-(4-phenoxyphenyl)pyrimidin-4-yl)oxy)pyridin-3-yl)acrylamide] |
| < 1000 nM | CN(C)C/C=C/C(=O)N[C@@H]1CCC[C@H](Nc2ncnc(N)c2-c2ccc(Oc3ccccc3)cc2)C1 (relative stereo) [A63, (E)-N-(cis-3-((6-amino-5-(4-phenoxyphenyl)pyrimidin-4-yl)amino)cyclohexyl)-4-(dimethylamino)but-2-enamide] |
| > 1000 nM | C=CC(=O)Nc1cccc(Oc2ncnc(N)c2-c2cccc(S(N)(=O)=O)c2)c1 [A163, N-(3-((6-amino-5-(3-sulfamoylphenyl)pyrimidin-4-yl)oxy)phenyl)acrylamide] |
| > 1000 nM | C=CC(=O)N1CCC(CNc2ncnc(N)c2-c2ccc(OC)cc2)CC1 [A85, 1-(4-(((6-amino-5-(4-methoxyphenyl)pyrimidin-4-yl)amino)methyl)piperidin-1-yl)prop-2-en-1-one] |
| < 1000 nM | C=CC(=O)N1CC(CCNc2ncnc(N)c2-c2ccc(Oc3ccccc3)cc2)C1 [A103, 1-(3-(2-((6-amino-5-(4-phenoxyphenyl)pyrimidin-4-yl)amino)ethyl)azetidin-1-yl)prop-2-en-1-one] |
| > 1000 nM | COCCN(C)C/C=C/C(=O)N1CCC(CNc2ncnc(N)c2-c2ccc(Oc3ccccc3)cc2)CC1 [A11, (E)-1-(4-(((6-amino-5-(4-phenoxyphenyl)pyrimidin-4-yl)amino)methyl)piperidin-1-yl)-4-((2-methoxyethyl)(methyl)amino)but-2-en-1-one] |
| > 1000 nM | N#CC1(C(=O)Nc2cccc(Oc3ncnc(N)c3-c3ccc(Oc4ccccc4)cc3)c2)CC1 [A329, N-(3-((6-amino-5-(4-phenoxyphenyl)pyrimidin-4-yl)oxy)phenyl)-1-cyanocyclopropanecarboxamide] |
| > 1000 nM | C=CC(=O)N1CCC(CNc2ncnc(N)c2-c2ccc(OC)c(OC)c2)CC1 [A82, 1-(4-(((6-amino-5-(3,4-dimethoxyphenyl)pyrimidin-4-yl)amino)methyl)piperidin-1-yl)prop-2-en-1-one] |
| < 100 nM | C=CC(=O)NC1CC(CNc2ncnc(N)c2-c2ccc(Oc3ccccc3)cc2)C1 (centres unmarked) [A182, N-(3-(((6-amino-5-(4-phenoxyphenyl)pyrimidin-4-yl)amino)methyl)cyclobutyl)acrylamide] |
| > 1000 nM | C=CC(=O)N1CCC2(CCC2Nc2ncnc(N)c2-c2ccc(Oc3ccccc3)cc2)CC1 (centres unmarked) [A123, 1-(1-((6-amino-5-(4-phenoxyphenyl)pyrimidin-4-yl)amino)-7-azaspiro[3.5]nonan-7-yl)prop-2-en-1-one] |
| > 1000 nM | C=CC(=O)NCCOc1ncnc(N)c1-c1ccc(Oc2ccccc2)cc1 [A27, N-(2-((6-amino-5-(4-phenoxyphenyl)pyrimidin-4-yl)oxy)ethyl)acrylamide] |
| < 100 nM | C=CC(=O)Nc1cccc(Oc2ncnc(N)c2-c2ccc(OCc3ccccc3)nc2)c1 [A259, N-(3-((6-amino-5-(6-(benzyloxy)pyridin-3-yl)pyrimidin-4-yl)oxy)phenyl)acrylamide] |
| < 100 nM | C=CC(=O)N1CCCC(COc2ncnc(N)c2-c2ccc(Oc3ccccc3)cc2)C1 (centres unmarked) [A17, 1-(3-(((6-amino-5-(4-phenoxyphenyl)pyrimidin-4-yl)oxy)methyl)piperidin-1-yl)prop-2-en-1-one] |
| > 1000 nM | C/C=C/C(=O)Nc1cccc(-c2cnccc2Oc2ccc(Oc3ccccc3)cc2)c1 [A307, (E)-N-(3-(4-(4-phenoxyphenoxy)pyridin-3-yl)phenyl)but-2-enamide] |
| < 100 nM | C=CC(=O)Nc1cccc(Oc2ccnc(N)c2-c2ccc(Oc3ccccc3)cc2)c1 [A244, N-(3-((2-amino-3-(4-phenoxyphenyl)pyridin-4-yl)oxy)phenyl)acrylamide] |
| < 1000 nM | C=CC(=O)Nc1cccc(Oc2ncnc(N)c2-c2ccc(C(=O)N3CCCC3)cc2)c1 [A285, N-(3-((6-amino-5-(4-(pyrrolidine-1-carbonyl)phenyl)pyrimidin-4-yl)oxy)phenyl)acrylamide] |

| IC50 | Structure (SMILES) |
| --- | --- |
| < 100 nM | C=CC(=O)N1C[C@@H](F)C[C@H](Nc2ncnc(N)c2-c2ccc(Oc3ccccc3)cc2)C1 [A204, 1-((3S,5S)-3-((6-amino-5-(4-phenoxyphenyl)pyrimidin-4-yl)amino)-5-fluoropiperidin-1-yl)prop-2-en-1-one] |
| < 100 nM | C=CC(=O)Nc1cccc(-c2c(Oc3ccc(Oc4ccccc4)cc3)ccnc2C(N)=O)c1 [A272, 3-(3-acrylamidophenyl)-4-(4-phenoxyphenoxy)picolinamide] |
| < 100 nM | C=CC(=O)Nc1cccc(Oc2ncnc(N)c2-c2ccc(F)c(OC)c2)c1 [A277, N-(3-((6-amino-5-(4-fluoro-3-methoxyphenyl)pyrimidin-4-yl)oxy)phenyl)acrylamide] |
| < 1000 nM | C=CC(=O)Nc1cccc(Oc2ncnc(N)c2-c2ccc(Oc3ccc(F)cc3)nc2)c1 [A166, N-(3-((6-amino-5-(6-(4-fluorophenoxy)pyridin-3-yl)pyrimidin-4-yl)oxy)phenyl)acrylamide] |
| < 1000 nM | C=CC(=O)Nc1ccc(-c2cnccc2Oc2ccc(Oc3ccccc3)cc2)cc1 [A281, N-(4-(4-(4-phenoxyphenoxy)pyridin-3-yl)phenyl)acrylamide] |
| < 100 nM | C=CC(=O)[C@H]1CCC[C@H](Nc2ncnc(N)c2-c2ccc(Oc3ccccc3)cc2)C1 [A143, 1-((1S,3S)-3-(6-Amino-5-(4-phenoxyphenyl)-pyrimidin-4-ylamino)-cyclohexyl)-propenone] |
| > 1000 nM | C/C=C/C(=O)NCc1cccc(-c2cnccc2Oc2ccc(Oc3ccccc3)cc2)c1 [A327, (E)-N-(3-(4-(4-phenoxyphenoxy)pyridin-3-yl)benzyl)but-2-enamide] |
| < 100 nM | CC#CC(=O)[C@H]1CCC[C@H](Nc2ncnc(N)c2-c2ccc(Oc3ccccc3)cc2)C1 [A145, 1-((1S,3S)-3-(6-Amino-5-(4-phenoxyphenyl)-pyrimidin-4-ylamino)-cyclohexyl)-but-2-yn-1-one] |
| < 1000 nM | C=CC(=O)N1CC=C(c2c(N)ncnc2Oc2ccc(Oc3ccccc3)cc2)CC1 [A263, 1-(4-(4-amino-6-(4-phenoxyphenoxy)pyrimidin-5-yl)-5,6-dihydropyridin-1(2H)-yl)prop-2-en-1-one] |
| > 1000 nM | Nc1cccc(Oc2ccnc(N)c2-c2ccc(Oc3ccccc3)cc2)c1 [A313, 4-(3-aminophenoxy)-3-(4-phenoxyphenyl)pyridin-2-amine] |
| < 100 nM | C=CC(=O)N1CCC(CNc2ncnc(N)c2-c2ccc(Oc3ccc(C)cc3)cc2)CC1 [A98] |
| > 1000 nM | C=CC(=O)N1CCC(CNc2ncnc(N)c2-c2ccc3c(c2)OCCO3)CC1 [A84, 1-(4-(((6-amino-5-(2,3-dihydrobenzo[b][1,4]dioxin-6-yl)pyrimidin-4-yl)amino)methyl)piperidin-1-yl)prop-2-en-1-one] |
| < 1000 nM | C=CC(=O)NCCCNc1ncnc(N)c1-c1ccc(Oc2ccccc2)cc1 [A59, N-(3-((6-amino-5-(4-phenoxyphenyl)pyrimidin-4-yl)amino)propyl)acrylamide] |
| > 1000 nM | Nc1ncnc(NCC2CCN(C(=O)/C=C/CN3CC(F)(F)C3)CC2)c1-c1ccc(Oc2ccccc2)cc1 [A219, (E)-1-(4-(((6-amino-5-(4-phenoxyphenyl)pyrimidin-4-yl)amino)methyl)piperidin-1-yl)-4-(3,3-difluoroazetidin-1-yl)but-2-en-1-one] |
| < 100 nM | C=CC(=O)Nc1cccc(Oc2ncnc(N)c2-c2cnn(Cc3cccc(OC)c3)c2)c1 [A198, N-(3-((6-amino-5-(1-(3-methoxybenzyl)-1H-pyrazol-4-yl)pyrimidin-4-yl)oxy)phenyl)acrylamide] |
| < 100 nM | CC#CC(=O)N1CC2(CC(Nc3ncnc(N)c3-c3ccc(Oc4ccccc4)cc3)C2)C1 [A108, 1-(6-((6-amino-5-(4-phenoxyphenyl)pyrimidin-4-yl)amino)-2-azaspiro[3.3]heptan-2-yl)but-2-yn-1-one] |
| < 1000 nM | C=CC(=O)NCc1ccc(-c2cnccc2Oc2ccc(Oc3ccccc3)cc2)cc1 [A287, N-(4-(4-(4-phenoxyphenoxy)pyridin-3-yl)benzyl)acrylamide] |
| < 100 nM | C=CC(=O)N1CCC(O)(CNc2ncnc(N)c2-c2ccc(Oc3cccc(C(F)(F)F)c3)cc2)CC1 [A169, 1-(4-(((6-amino-5-(4-(3-(trifluoromethyl)phenoxy)phenyl)pyrimidin-4-yl)amino)methyl)-4-hydroxypiperidin-1-yl)prop-2-en-1-one] |
| < 100 nM | C=CC(=O)N1CC(Nc2ncnc(N)c2-c2ccc(Oc3ccccc3)cc2)C1 [A185, 1-(3-((6-amino-5-(4-phenoxyphenyl)pyrimidin-4-yl)amino)azetidin-1-yl)prop-2-en-1-one] |

| Structure (SMILES) | IC50 |
| --- | --- |
| C#CC(=O)N1CCC(CNc2ncnc(N)c2-c2ccc(Oc3ccccc3)cc2)CC1 [A46, 1-(4-(((6-amino-5-(4-phenoxyphenyl)pyrimidin-4-yl)amino)methyl)piperidin-1-yl)prop-2-yn-1-one] | < 100 nM |
| C=CC(=O)N1C2CCC1CC(CNc1ncnc(N)c1-c1ccc(Oc3ccc(C#N)cc3)cc1)C2 (centres unmarked) [A208, 4-(4-(4-(((8-acryloyl-8-azabicyclo[3.2.1]octan-3-yl)methyl)amino)-6-aminopyrimidin-5-yl)phenoxy)benzonitrile] | > 1000 nM |
